Measurements: patent US20060069132A1, “Azolecarboxamide herbicides” (priority 2004, published 2006)

Assays:
Test in all cases: Test C postemergence herbicide test
chickweed = assay type: in vivo, Stellaria media; details: for Chickweed plant response rating: 500 g ai/ha
Description: (§1) At the same time, plants selected from these crop and weed species and also winter barley (Hordeum vulgare L.), blackgrass (Alopecurus myosuroides Huds.), canarygrass (Phalaris minor Retz.), chickweed (Stellaria media (L.) Vill.), downy bromegrass (Bromus tectorum L.), green foxtail (Setaria viridis (L.) Beauv.), Italian ryegrass (Lolium multiflorum Lam.), wheat (Triticum aestivum L.), wild oat (Avenafatua L.) and windgrass (Apera spica-venti (L.) Beauv.) were treated with postemergence applications of some of the test chemicals formulated in the same manner. Plants ranged in height from 2 to 18 cm (1- to 4-leaf stage) for postemergence treatments. Plant species in the flooded paddy test consisted of rice (Oryza sativa), smallflower umbrella sedge (Cyperus difformis L.), ducksalad (Heteranthera limosa (Sw.) Willd.) and barnyardgrass (Echinochloa crus-galli (L.) Beauv.) grown to the 2-leaf stage for testing. Treated plants and controls were maintained in a greenhouse for 12 to 14 days, after which time all species were compared to controls and visually evaluated. Plant response ratings, summarized in Table C, are based on a scale of 0 to 100 where 0 is no effect and 100 is complete control. A dash (-) response means no test result.

winter barley = assay type: in vivo, Hordeum vulgare; details: for Barley, Winter plant response rating: 500 g ai/ha
Description: as §1

blackgrass = assay type: in vivo, Alopecurus myosuroides; details: for Blackgrass plant response rating: 500 g ai/ha
Description: as §1

wheat = assay type: in vivo, Triticum aestivum
Description: as §1

[1] = Postemergence, 250 g ai/ha, scale 0 to 100, 0 no effect, 100 complete control
[2] = postemergence, 125 g ai/ha, scale 0 to 100
[3] = postemergence, 62 g ai/ha, scale 0 to 100
[4] = Postemergence, 125 g ai/ha, scale 0 to 100, 0 no effect, 100 complete control
[5] = postemergence, 62 g ai/ha, scale 0 to 100 (0 no effect, 100 complete control)
[6] = Postemergence, 500 g ai/ha, scale 0 to 100, 0 no effect, 100 complete control
[7] = postemergence, 31 g ai/ha, scale 0 to 100

Row | SMILES | Chickweed plant response rating (chickweed; Postemergence, scale 0 to 100) | Plant response rating, Chickweed (chickweed; [1]) | Plant response rating, Chickweed (chickweed; [2]) | Plant response rating, Chickweed (chickweed; [3]) | Plant response rating, Barley, Winter (winter barley; [4]) | Plant response rating, Barley, Winter (winter barley; [1]) | Plant response rating, Barley, Winter (winter barley; [5]) | Plant response rating, Blackgrass (blackgrass; [1]) | Plant response rating, Blackgrass (blackgrass; [2]) | Plant response rating, Blackgrass (blackgrass; [3]) | Plant response rating, Wheat (wheat; [2]) | Plant response rating, Wheat (wheat; [3]) | Plant response rating, Chickweed (chickweed; [4]) | also measured
1 | CCOC(=O)c1cc(NC(=O)c2cc(C(C)(C)C)nn2CC)ccc1OC [Compound 96] | 100 | 100 | 100 | 100 |  |  |  |  |  |  |  |  |  | 
2 | CCNC(=O)c1ccc(F)c(NC(=O)c2c3c(nn2CC)C(C)(C)CC3)c1 [Compound 353] |  |  |  |  | 15 | 20 | 5 | 60 | 20 | 0 | 15 | 10 |  | Barley, Winter plant response rating (winter barley; Postemergence, scale 0 to 100): 25; Blackgrass plant response rating (blackgrass; Postemergence, scale 0 to 100): 70; Plant response rating, Wheat (wheat; [1]): 30; Plant response rating, Wheat (wheat; [6]): 35
3 | CCCCOC(=O)c1cccc(NC(=O)c2cc(C(C)(C)C)nn2CC)c1 [Compound 86] | 100 | 100 | 100 | 100 |  |  |  |  |  |  |  |  |  | 
4 | C=CCNC(=O)c1cccc(NC(=O)c2nn(C(C)(C)C)nc2CC)c1 [Compound 414] |  |  |  |  | 30 | 45 | 10 | 45 | 40 | 40 | 10 | 10 |  | Barley, Winter plant response rating (winter barley; Postemergence, scale 0 to 100): 45; Blackgrass plant response rating (blackgrass; Postemergence, scale 0 to 100): 60; Plant response rating, Wheat (wheat; [6]): 30
5 | C=Cn1nc(C(C)(C)C)cc1C(=O)Nc1cccc(C(C)=NO)c1 [Compound 114] |  | 100 |  | 100 |  |  |  |  |  |  |  |  |  | Plant response rating, Chickweed (chickweed; [7]): 80
6 | C#CCn1nc(C(C)(C)C)cc1C(=O)Nc1cccc(C(=O)NCC)c1 [Compound 50] | 0 | 0 |  | 0 |  |  |  |  |  |  |  |  | 0 | 
7 | CCOC(=O)c1cccc(NC(=O)c2nn(C(C)(C)CC)nc2CC)c1 [Compound 375] |  | 100 | 100 | 100 | 30 | 40 | 20 | 55 | 45 | 35 | 30 | 25 |  | Plant response rating, Barley, Winter (winter barley; [7]): 10; Plant response rating, Blackgrass (blackgrass; [7]): 30; Plant response rating, Chickweed (chickweed; [7]): 100
8 | CCn1nc(C(C)(C)C)cc1C(=O)Nc1cccc(OC(F)F)c1 [Compound 332] | 100 | 100 | 100 | 60 | 35 | 40 | 35 | 100 | 70 | 60 | 30 | 30 |  | Barley, Winter plant response rating (winter barley; Postemergence, scale 0 to 100): 40; Blackgrass plant response rating (blackgrass; Postemergence, scale 0 to 100): 70; Wheat plant response rating (wheat; Postemergence, 500 g ai/ha, scale 0 to 100): 35; Plant response rating, Wheat (wheat; [1]): 35
9 | CCn1nc(C(C)(C)C)cc1C(=O)Nc1cccc(SC(F)(F)F)c1 [Compound 130] | 100 | 100 | 100 |  |  |  |  |  |  |  |  |  |  | 
10 | C=Cn1nc(C(C)(C)C)cc1C(=O)Nc1cccc(C(=O)NCC)c1 [Compound 33] |  |  |  | 90 |  |  |  |  |  |  |  |  | 100 | Plant response rating, Chickweed (chickweed; postemergence, 16 g ai/ha, scale 0 to 100): 30; Plant response rating, Chickweed (chickweed; [7]): 40
11 | CC(=NO)c1cccc(NC(=O)c2cc(C(C)(C)C)nn2CCF)c1 [Compound 115] | 100 | 100 | 100 | 100 |  |  |  |  |  |  |  |  |  | 
12 | C#CCNC(=O)c1cccc(NC(=O)c2cc(C(C)(C)C)nn2CC)c1 [Compound 47] | 100 | 90 |  | 90 |  |  |  |  |  |  |  |  | 90 | 
13 | CCn1nc(C(C)(C)C)cc1C(=O)Nc1cc(C(=S)N(C)C)ccn1 [Compound 334] |  |  |  |  | 30 | 30 | 20 | 95 | 95 | 90 | 75 | 65 |  | Plant response rating, Barley, Winter (winter barley; [7]): 20; Plant response rating, Blackgrass (blackgrass; [7]): 75; Plant response rating, Wheat (wheat; [1]): 75
14 | CCNC(=O)c1cc(NC(=O)c2cc(C(C)(C)C)nn2CC)ccc1F [Compound 58] | 85 | 50 |  | 20 |  |  |  |  |  |  |  |  | 20 | 
15 | C=CCNC(=O)c1cccc(NC(=O)c2cc(C(C)(C)C)nn2CC)c1 [Compound 46] | 100 | 80 |  | 70 |  |  |  |  |  |  |  |  | 70 | 
